Laboratory results as given in patent publication US7258878B2, “Anti-microbial composition and methods of use thereof” (Kimberly-Clark Worldwide, Inc., priority 2004, dated 2007).
Where two headings read alike, the source gives them in different places.

Legend:
[1] = test system: A niger (ATCC 16404; fungus); assay: Zone of inhibition test against A. niger; type: cell-based, Aspergillis niger; details: for zone of inhibition at 1000 µg/mL / zone of inhibition at 10000 µg/mL: Aspergillus niger
Method: (§1) Natural compounds were evaluated for anti-microbial activity using the zone of inhibition test (ASTM E214901). The activity against five types of microorganisms: Staphylococcus aureus, Pseudomonas aeruginosa, Escherichia coli, Aspergillis niger and Candida albicans, was evaluated. These microorganisms represent gram positive and gram negative bacteria, fungi and yeast.
(§2) The compounds were tested for activity against E. coli (ATCC 8739; Gram negative bacteria), S. aureus (ATCC 6538; Gram positive bacteria), P. aeruginosa (ATCC 9027; Gram negative bacteria), C. albicans (ATCC 10231; yeast) and A niger (ATCC 16404; fungus) at 1 and 10 mg/ml concentrations by using the zone of inhibition method along with triclosan as a positive control.
(§3) The following natural compounds were tested for their anti-fungal properties: eucalyptol, cineole (SIGMA C-8144); gallic acid, 3,4,5-trihydroxybenzoic acid (SIGMA G-7384); methyl jasmonate, 95% (Aldrich 39270-7); and naringin: >95%, made from citrus fruit (SIGMA N-1376). A DMSO/water (75/25 by volume) mixture was used as the carrying solvent for each compound tested. The compounds were tested at 1 and 10 mg/ml concentrations by using the zone of inhibition method along with triclosan as a positive control.
(§4) Microorganism cultures of 10^5 cfu (colony forming units)/ml in a 1×PBS (phosphate buffered saline) solution were used. One ml of the solution was plated on a trypticase soy agar plate (TSA) and allowed to grow at 35° C. for four hours. 4 mm diameter wells were then punched in each TSA plate and 100 μl of each compound being tested was added to these wells. The plates were incubated overnight at 35° C. Lawn clearing was measured the next day as an indicator of antimicrobial activity.

[2] = test system: C. albicans (ATCC 10231; yeast); assay: Zone of inhibition test against C. albicans; type: cell-based, Candida albicans; details: for zone of inhibition at 1000 µg/mL / zone of inhibition at 10000 µg/mL: Candida albicans; for Selective inhibition of C. albicans (conclusion in words): zone of inhibition, five organisms tested, 1 and 10 mg/ml
Method: as §1, §2, §3, §4

[3] = test system: Lactobacillus acidophilus (ATCC 11975); assay: Zone of inhibition test against Lactobacillus acidophilus; type: cell-based; details: sample size 100 μl; for Zone of Inhibition: duplicate
Method: as §4
Five of these compounds were tested against Lactobacillus acidophilus (ATCC 11975). None of the compounds tested had antimicrobial activity against lactobacilli, a microorganism normally found in humans, specifically in the vagina. Due to their ability to derive lactic acid from glucose, these bacteria create an acidic environment that inhibits growth of many bacterial species that can lead to urogenital infections. Lactobacillus is generally harmless to humans, rarely inciting harmful infections or diseases. Thus, these compounds can be effectively utilized to develop products to address infections arising from Candida, Aspergillus and related species without destroying the normal balance of microbial species found in human gastrointestinal tract.
Gallic acid, 3,4,5-trihydroxybenzoic acid (SIGMA G-7384); eucalyptol, cineole (SIGMA C-8144); naringin: >95%, made from citrus fruit (SIGMA N-1376), and methyl jasmonate, 95% (Aldrich 39270-7) were tested in two concentrations (1 and 10 mg/ml) in DMSO:water (75:25) along with positive control (chlorhexidine 5 mg/ml in 75:25 DMSO:water) and a negative control (75:25 DMSO:water). All tests were conducted in duplicate in a zone of inhibition study (as described in Example 1).

[4] = test system: E. coli (ATCC 8739; Gram negative bacteria); assay: Zone of inhibition test against E. coli; type: cell-based, Escherichia coli; details: for zone of inhibition at 1000 µg/mL / zone of inhibition at 10000 µg/mL: Escherichia coli
Method: as §1, §2, §3, §4

[5] = test system: P. aeruginosa (ATCC 9027; Gram negative bacteria); assay: Zone of inhibition test against P. aeruginosa; type: cell-based, Pseudomonas aeruginosa; details: for zone of inhibition at 1000 µg/mL / zone of inhibition at 10000 µg/mL: Pseudomonas aeruginosa
Method: as §1, §2, §3, §4

[6] = test system: S. aureus (ATCC 6538; Gram positive bacteria); assay: Zone of inhibition test against S. aureus; type: cell-based, Staphylococcus aureus; details: for zone of inhibition at 1000 µg/mL / zone of inhibition at 10000 µg/mL: Staphylococcus aureus
Method: as §1, §2, §3, §4

[7] = ATCC16404, concentration 1 mg/ml, 100 μl per well, DMSO/water 75/25, read-out: Zone of inhibition A. niger
[8] = ATCC16404, concentration 10 mg/ml, 100 μl per well, DMSO/water 75/25
[9] = ATCC10231, concentration 1 mg/ml, 100 μl per well, DMSO/water 75/25, read-out: Zone of inhibition C. albicans
[10] = ATCC10231, concentration 10 mg/ml, 100 μl per well, DMSO/water 75/25
[11] = 1 mg/ml in DMSO:water 75:25, inoculum 5.8 × 10^5 CFU/ml
[12] = 10 mg/ml in DMSO:water 75:25, inoculum 5.8 × 10^5 CFU/ml
[13] = ATCC8739, concentration 1 mg/ml, 100 μl per well, DMSO/water 75/25, read-out: Zone of inhibition E. coli
[14] = ATCC8739, concentration 10 mg/ml, 100 μl per well, DMSO/water 75/25
[15] = ATCC9027, concentration 1 mg/ml, 100 μl per well, DMSO/water 75/25, read-out: Zone of inhibition P. aeruginosa
[16] = ATCC9027, concentration 10 mg/ml, 100 μl per well, DMSO/water 75/25
[17] = ATCC6538, concentration 1 mg/ml, 100 μl per well, DMSO/water 75/25, read-out: Zone of inhibition S. aureus
[18] = ATCC6538, concentration 10 mg/ml, 100 μl per well, DMSO/water 75/25
[19] = concentration 1 mg/ml, 100 μl per well, DMSO/water 75/25
[20] = concentration 10 mg/ml, 100 μl per well, DMSO/water 75/25

SMILES	zone of inhibition at 1000 µg/mL [1, 7] [mm]	zone of inhibition at 10000 µg/mL [1, 8] [mm]	zone of inhibition at 1000 µg/mL [2, 9] [mm]	zone of inhibition at 10000 µg/mL [2, 10] [mm]	Selective inhibition of C. albicans (conclusion in words) [2]	Zone of Inhibition [3, 11]	Zone of Inhibition [3, 12]	zone of inhibition at 1000 µg/mL [4, 13] [mm]	zone of inhibition at 10000 µg/mL [4, 14] [mm]	zone of inhibition at 1000 µg/mL [5, 15] [mm]	zone of inhibition at 10000 µg/mL [5, 16] [mm]	zone of inhibition at 1000 µg/mL [6, 17] [mm]	zone of inhibition at 10000 µg/mL [6, 18] [mm]	Zone of inhibition A. niger [1, 19] [mm]	Zone of inhibition A. niger [1, 20] [mm]	Zone of inhibition C. albicans [2, 19] [mm]	Zone of inhibition C. albicans [2, 20] [mm]	Zone of inhibition E. coli [4, 19] [mm]	Zone of inhibition E. coli [4, 20] [mm]	Zone of inhibition P. aeruginosa [5, 19] [mm]	other results
O=C(O)c1cc(O)c(O)c(O)c1 [Gallic acid, 3,4,5-trihydroxybenzoic acid]	0	0	5	4	selective inhibitors of C. albicans with no effect on the other four organisms tested	None	None	0	0	0	0	0	0								
Oc1cc(Cl)ccc1Oc1ccc(Cl)cc1Cl [Triclosan, triclosan, reference compound]																					zone of inhibition at 1000 µg/mL ([1]; ATCC16404, read-out: Zone of inhibition A. niger): 10 mm; zone of inhibition at 1000 µg/mL ([2]; ATCC10231, read-out: Zone of inhibition C. albicans): 8.5 mm; zone of inhibition at 1000 µg/mL ([4]; ATCC8739, read-out: Zone of inhibition E. coli): 11 mm; zone of inhibition at 1000 µg/mL ([5]; ATCC9027, read-out: Zone of inhibition P. aeruginosa): 0 mm; zone of inhibition at 1000 µg/mL ([6]; ATCC6538, read-out: Zone of inhibition S. aureus): 10 mm
C[C@@H]1O[C@@H](O[C@H]2[C@H](Oc3cc(O)c4c(c3)OC(c3ccc(O)cc3)CC4=O)O[C@H](CO)[C@@H](O)[C@@H]2O)[C@H](O)[C@H](O)[C@H]1O (stereo partly drawn) [Naringin, 7-[[2-O-(6-Deoxy-α-L-mannopyrano-syl)-β-D-glucopyranosyl]oxy]-2,3-dihydro-5-hydroxy-2-(4-hydroxyphenyl)-4H-1-benzopyran-4-one]					selective inhibitors of C. albicans with no effect on the other four organisms tested	None	None							0	0	3	3.5	0	0	0	Zone of inhibition P. aeruginosa [5, 20]: 0 mm; Zone of inhibition S. aureus [6, 19]: 0 mm; Zone of inhibition S. aureus [6, 20]: 0 mm
[H]/N=C(\N/C(=N/[H])NCCCCCCNC(=N)NC(=N)Nc1ccc(Cl)cc1)Nc1ccc(Cl)cc1 [Positive control, chlorhexidine, reference compound]																					zone of inhibition at 5000 µg/mL ([3]; Lactobacillus acidophilus, ATCC11975, positive control, chlorhexidine 5 mg/ml in 75:25 DMSO:water, inoculum 5.8 × 10^5 CFU/ml): 6 mm
CC12CCC(CC1)C(C)(C)O2 [Eucalyptol, 1,3,3-Trimethyl-2-oxabicyclo[2,2,2]-octane]	0	0	3	3	selective inhibitors of C. albicans with no effect on the other four organisms tested	None	None	0	0	0	0	0	0								
CC/C=C\CC1C(=O)CCC1CC(=O)OC (centres unmarked) [Methyl jasmonate, methyl jasmonate]					selectively inhibit both C. albicans and A. niger	None	None							0	5	0	7.5	0	0	0	Selective inhibition of A. niger (conclusion in words) ([1]; zone of inhibition, five organisms tested, 1 and 10 mg/ml): selectively inhibit both C. albicans and A. niger; Zone of inhibition P. aeruginosa [5, 20]: 0 mm; Zone of inhibition S. aureus [6, 19]: 0 mm; Zone of inhibition S. aureus [6, 20]: 2 mm
